{"source": "paper PMC10895668", "about": "“Lead Optimization of the 5-Phenylpyrazolopyrimidinone NPD-2975 toward Compounds with Improved Antitrypanosomal Efficacy” (Journal of Medicinal Chemistry, 2024)", "key": {"[1]": {"test": "In vivo pharmacokinetics in non-infected mice", "method": "The antiparasitic assays were carried out exactly as described in Blaazer et al.([39]) Metabolic stability, pharmacokinetics, acute mouse infection model results were collected as described previously.[21] All animal experiments were conducted in compliance with institutional guidelines and following approval by the Ethical Committee of the University of Antwerp, Belgium [UA-ECD 2014–96]. Female Swiss mice (15–20 g), were purchased from Janvier (Le Genest Saint Isle, France). […] Animals were treated PO b.i.d. for 5 days at 25 and 50 mg/kg 31c. For the SL-RNA qPCR experiments blood was collected sublingually and subjected to erythrocyte lysis before extracting RNA with the QIAamp RNA Blood Mini kit (Qiagen). […] Small pieces of fat, brain, and spleen tissue were excised and immediately transferred to RNA later (Qiagen) and incubated overnight at 4 °C. RNA extraction was performed as instructed in the RNeasy Mini Plus Kit manual (Qiagen). The one-step SensiFAST SYBR Hi-Rox PCR kit (Bioline USA Inc., via Gentaur Belgium BVBA, Kampenhout, Belgium) was used for the PCR with the following forward and reverse primers, respectively 5′-[…]-3′ and 5′-[…]-3′. An initial activation step of 10 min at 45 °C and 10 min at 95 °C was used, followed by the amplification step for 40 cycles (15 s at 95 °C, 15 s 50 °C and 15 s at 60 °C). At last, the melting curves were generated with an increment of 0.3 °C (15 s at 95 °C 1 min at 45 °C and 15 s at 95 °C). The PCR was run on the Step One Plus real-time PCR system (Applied Biosystems, California, USA). An additional qPCR was performed with the mouse housekeeping gene Eef2 to confirm successful RNA extraction.\nBlood drops were sampled before treatment and at 0.5, 1, 2, 4, 6, and 24 h after PO dosage; samples after IP dosage were identical with an additional time point of 0.25 h. The blood drops were analyzed adopting the dry blood spot technique and analysis by LC-MS^2. Briefly, blood was collected from the retro-orbital complex using capillary tubes and dropped (15 μL) on WhatmanFTADMPK cards (B). The spots were left to air-dry at room temperature for at least 2 h. For analysis, a 6 mm disk was punched out and extracted in 75:25 MeCN/water containing the internal standard tolbutamide. The amount of parent compound was determined using liquid chromatography (UPLC) (Waters Aquity) coupled with tandem quadrupole mass spectrometry (MS^2) (Waters Xevo) equipped with an electrospray ionization (ESI) interface and operated in multiple reaction monitoring mode. Standard curves in whole blood were made for calibration and validation. Standard PK parameters were determined using Topfit software.\nBrain tissue of the animals was collected on ice at autopsy 24 h post-treatment (50 mg/kg oral dose) after perfusion. […] The tissues were immediately homogenized using a GentleMacs tissue homogenizer. The tissue samples were subjected to protein precipitation by adding MeCN, followed by a centrifugation step at 4 °C for 5 min at 21, 130 g. The supernatant was further diluted in 75:25 MeCN/water for LC-MS^2 analysis as described above."}, "[2]": {"settings": "human, microsomes, 1 h"}, "[3]": {"settings": "female, Swiss, mouse, in vivo, ip, 10 mg/kg"}, "[4]": {"settings": "female, Swiss, mouse, in vivo, po, 50 mg/kg"}}}
{"smiles": "CC(C)(C)c1n[nH]c2c(=O)[nH]c(-c3ccc(F)cc3)nc12", "note": "[31c, 3-(tert-Butyl)-5-(4-fluorophenyl)-1,6-dihydro-7H-pyrazolo[4,3-d]pyrimidin-7-one]", "values": [{"measurement": "blood concentration exceeding the in vitro IC50 against T. brucei", "setting": "[1]; both routes (10 mg/kg IP, 50 mg/kg PO)", "result": "more than 300 fold"}, {"measurement": "AUC(0-t) at 24 h", "setting": "[1]; [3]", "result": "2470 ± 1560", "unit": "ng·h/mL"}, {"measurement": "Cl", "setting": "[1]; [3]", "result": "326 ± 148"}, {"measurement": "Cmax at 24 h", "setting": "[1]; [3]", "result": "5.05 ± 1.51", "unit": "µM"}, {"measurement": "Tmax at 24 h", "setting": "[1]; [3]", "result": "0.5 ± 0.3", "unit": "h"}, {"measurement": "half-life at 24 h", "setting": "[1]; [3]", "result": "1.56 ± 0.5", "unit": "h"}, {"measurement": "AUC0–6 h higher compared with 2", "setting": "[1]; [4]", "result": "more than 7 fold"}, {"measurement": "AUC(0-t) at 24 h", "setting": "[1]; [4]", "result": 43400, "unit": "ng·h/mL"}, {"measurement": "Cl", "setting": "[1]; [4]", "result": "11 ± 1"}, {"measurement": "Cmax at 24 h", "setting": "[1]; [4]", "result": "10.9 ± 1.69", "unit": "µM"}, {"measurement": "Tmax at 24 h", "setting": "[1]; [4]", "result": 6, "unit": "h"}, {"measurement": "concentration at 24 h", "setting": "[1]; [4]", "result": 0.296, "unit": "µM"}, {"measurement": "half-life at 24 h", "setting": "[1]; [4]", "result": "3.51 ± 1.34", "unit": "h"}, {"measurement": "parent compound remaining", "setting": "[2]", "result": "at least 69%"}]}
